Measurements as given in patent US8461183B2, “PPAR agonist compounds, preparation and uses” (Genfit, priority 2008, dated 2013).

Columns and labels:
[1] = tested on: ApoE2/E2 dyslipidemic mouse; test: Plasma lipids in the ApoE2/E2 dyslipidemic mouse; type: in vivo; conditions: 7 days
Procedure: The hypolipemic properties of the compounds according to the invention were evaluated in vivo by determination of plasma lipids and by analysis of gene expression of targets genes of PPARs in the liver after oral treatment of a dyslipidemic mouse with the compounds according to the invention.
The murine model used is the mouse of type ApoE2/E2, a mouse transgenic for the E2 isoform of human apolipoprotein E (Sullivan P M et al., 1998). In humans, this apolipoprotein, a constituent of low and very low density lipoproteins (LDL-VLDL), occurs in three isoforms E2, E3 and E4. […] Because of this, clearance of VLDLs is almost zero. This leads to accumulation of […] and mixed, so-called type III hyperlipidemia (raised cholesterol and triglycerides).
PPARα regulates the expression of genes involved in lipid transport (apolipoproteins such as Apo AI, Apo AII and Apo CIII, membrane transporters such as FAT) or the catabolism of lipids (ACO, CPT-I or CPT-II, enzymes of β-oxidation of fatty acids). Treatment with PPARα activators is therefore reflected, both in humans and in rodents, in a decrease in levels of circulating triglycerides. Measurement of plasma lipids after treatment with the compounds according to the invention is therefore an indicator of the PPARα agonist character and therefore of the hypolipemic action of the compounds according to the invention.
(§1) Apo E2/E2 transgenic mice were kept in a cycle of light and darkness of 12 hours/12 hours at a constant temperature of 20±3° C. After acclimation for one week, the mice were weighed and put into groups of 6 animals selected in such a way that the distribution of their bodyweight and of their plasma lipid values determined first before the experiment are uniform. The compounds tested were suspended in carboxymethylcellulose (Sigma C4888) and administered at the chosen dose by stomach tube, at a rate of once a day for 7 days at the chosen dose. The animals had free access to water and food. At the end of the experiment, the animals were anesthetized after fasting for 4 hours, a blood sample was taken on anticoagulant (EDTA), then the mice were weighed and euthanased. The plasma was separated by centrifugation at 3000 rev/min for 20 minutes, and the samples were stored at +4° C. for the biochemical assays. Samples of liver were taken and frozen immediately in liquid nitrogen and then stored at −80° C. for subsequent analyses.
The plasma concentrations of lipids (total cholesterol, HDL-cholesterol, and free fatty acids) were measured by enzyme assays (bioMérieux-Lyons-France) according to the supplier's recommendations.

[2] = tested on: PPARα target genes (ACO, PDK-4, Apo CIII) in liver; test: Hepatic expression of PPARα target genes (quantitative RT-PCR) in the ApoE2/E2 mouse; type: in vivo; conditions: 10 and 100 mpk, 7 days, normalized to 36B4
Description: The PPARα agonist properties previously measured in vitro should be translated at the hepatic level by a change in the level of expression of the target genes directly under the control of the PPARα receptor: the genes that were studied in these experiments are those coding for ACO (a key enzyme in the mechanism of β-oxidation of fatty acids), PDK-4 (an enzyme of carbohydrate metabolism) and Apo CIII (apolipoprotein involved in lipid metabolism). This change in gene expression after treatment with the compounds according to the invention is therefore also an indicator of their hypolipemic character.
as §1
Total RNA was extracted from fragments of liver using the NucleoSpin® 96 RNA kit (Macherey Nagel, Hoerdt, France) according to the manufacturer's instructions. 1 μg of total RNA (quantified using the Ribogreen RNA quantification kit (Molecular Probes)) was then reverse transcribed to complementary DNA by a reaction of 1 hour at 37° C. in a total volume of 20 μl containing buffer 1× (Sigma), 1.5 mM of DTT, 0.18 mM of dNTPs (Promega), 200 ng of pdN6 (Amersham), 30U of RNase inhibitor (Sigma) and 1 μl of MMLV-RT (Sigma).
The quantitative PCR experiments were performed using the MyiQ Single-Color Real-Time PCR Detection System (Biorad, Marnes-la-Coquette, France) and were carried out using the iQ SYBR Green Supermix kit according to the supplier's recommendations, in 96-well plates, on 5 μl of diluted reverse transcription reaction mixtures, with a hybridization temperature of 55° C. Specific primer pairs of the genes under investigation were used:
The amount of fluorescence emitted is directly proportional to the amount of complementary DNA present at the start of the reaction and amplified during PCR. For each target investigated, a range is prepared by successive dilutions of a pool consisting of a few μl of different reverse transcription reactions. The relative levels of expression of each target are thus determined using the curves of efficacy obtained with the scale points.
The levels of expression of the genes of interest were then normalized relative to the level of expression of the 36B4 reference gene (whose specific primers are: […]
The induction factor, i.e. the ratio of the relative signal (induced by the compound according to the invention) to the mean of the relative values of the control group, was then calculated for each sample. The higher this factor, the more the compound has a character of activation of gene expression. The final result is represented as the mean of the induction values in each experimental group.

[3] = tested on: 3T3-L1 murine pre-adipocytes; test: PPARγ functional effect: adipogenesis in 3T3-L1 pre-adipocytes (triglycerides, adiponectin); type: cell-based, Mus musculus; conditions: 3T3-L1, 9 days of treatment, 30 nM to 30 μM
Procedure: The functional effect of activation of PPARγ is evaluated in vitro on a line of pre-adipocyte cells 3T3-L1 (Thompson G M et al., 2004) by measuring the concentration of intracellular triglycerides and the concentration of adiponectin secreted in the culture medium after 9 days of treatment with the compounds according to the invention.
At confluence, the cells were then rinsed with PBS (Phosphate Buffered Saline solution) and the culture medium was replaced with DMEM 4.5 g/L glucose (10% FCS, 1% L-glutamine, 100 units/mL penicillin and 100 μg/mL streptomycin, 0.25 mM) containing a cocktail for initiation of adipocyte differentiation (IBMX (3-isobutyl-1-methylxanthine Sigma; 17018), 0.1 μM dexamethasone (Sigma; D1756) and 0.4 μM of insulin (Sigma; I2643). The cells were also treated with the compounds according to the invention (1 μL of solubilized compound/mL of medium, 200 μL per well).
After 2 days of incubation, the cells were washed with PBS and the differentiation medium was replaced with DMEM 4.5 g/L of glucose supplemented with 10% FCS, 1% L-glutamine, 100 units/mL penicillin and 100 μg/mL streptomycin, 0.4 μM insulin, and the compounds according to the invention for the purpose of completing cellular differentiation and obtaining adipocytes. The medium was changed every 2 days until total differentiation. After culture for 9 days, the treatment was stopped by withdrawing the culture medium, which was stored for assaying secreted adiponectin. The cells were then washed twice with PBS and placed in isopropanol for membrane permeabilization. The content of intracellular triglycerides was evaluated immediately.
Quantification of intracellular triglycerides was performed with the “Triglyceride Enzymatic PAP1000” kit (bioMérieux; 61238) according to the supplier's recommendations. Secreted adiponectin was measured in the culture medium using the “Mouse Adiponectin/Acrp30 Elisa Kit” kit (R&D Systems; DY1119) according to the supplier's recommendations.

COc1nc(-c2ccccc2)ccc1COc1ccc(OCC(=O)O)cc1 [Cpd 2, 2-(4-((2-methoxy-6-phenylpyridin-3-yl)methoxy)phenoxy)ethanoic acid]
plasma level of HDL-cholesterol ([1]; 10 and 100 mpk oral): dose-dependent increase
plasma total cholesterol ([1]; 10 and 100 mpk oral): decreased
hepatic expression of gene coding for ACO [2]: hepatic overexpression
hepatic expression of gene coding for ApoCIII [2]: significant inhibition
hepatic expression of gene coding for PDK-4 [2]: hepatic overexpression

COc1nc(-c2ccccc2)ccc1CNc1ccc(OCC(=O)O)cc1 [Cpd 4, 2-(4-(((2-methoxy-6-phenylpyridin-3yl)methyl)amino)phenoxy)ethanoic acid]
plasma level of HDL-cholesterol ([1]; 10 and 100 mpk oral): dose-dependent increase
plasma total cholesterol ([1]; 10 and 100 mpk oral): decreased
hepatic expression of gene coding for ACO [2]: hepatic overexpression
hepatic expression of gene coding for ApoCIII [2]: significant inhibition
hepatic expression of gene coding for PDK-4 [2]: hepatic overexpression

COc1nc(-c2ccccc2)ccc1CNc1ccc(CCC(=O)O)cc1 [Cpd 19, 3-(4-(((2-methoxy-6-phenylpyridin-3-yl)methyl)amino)phenyl)propanoic acid]
plasma level of free fatty acids ([1]; 100 mpk oral): decrease
plasma total cholesterol ([1]; 100 mpk oral): decreased
accumulation of triglycerides in adipocytes [3]: dose-dependent stimulation
secretion of adiponectin [3]: dose-dependent stimulation

COc1nc(-c2ccc(C(F)(F)F)cc2)ccc1COc1ccc(OCC(=O)O)cc1 [Cpd 24, 2-(4-((2-methoxy-6-(4-(trifluoromethyl)phenyl)pyridin-3-yl)methoxy)-phenoxy)ethanoic acid]
accumulation of triglycerides in adipocytes [3]: dose-dependent stimulation
secretion of adiponectin [3]: dose-dependent stimulation
